Data taken from ChEMBL document CHEMBL4219199, “Synthesis and evaluation of aminobenzothiazoles as blockers of N- and T-type calcium channels” (Bioorg Med Chem, 2018).

What was measured:
[1] = target: Voltage-dependent N-type calcium channel subunit alpha-1B (Homo sapiens, UniProt Q00975); test: Inhibition of Cav2.2 in human SH-SY5Y cells assessed as decrease in KCl-induced calcium mobilization measured after 600 secs post compound addition and 300 secs post KCl addition in presence of CaV1 blocker nifedipine by calcium 4 dye-based FLIPR assay; format: cell-based
[2] = target: Voltage-dependent T-type calcium channel subunit alpha-1H (Homo sapiens, UniProt O95180); test: Inhibition of recombinant human Cav3.2-alpha1 expressed in HEK293T cells assessed as decrease in KCl-induced calcium mobilization measured after 600 secs post compound addition and 300 secs post KCl addition by calcium 4 dye-based FLIPR assay; format: cell-based
[3] = Half life in rat plasma; format: ADME, cell-free
[4] = Metabolic stability in rat plasma assessed as parent compound remaining at 120 uM after 24 hrs by HPLC analysis relative to control; format: ADME, cell-free; conditions: read-out: Stability
[5] = target: Voltage-dependent N-type calcium channel subunit alpha-1B (Rattus norvegicus, UniProt Q02294); test: Displacement of [125I]GVIA from rat brain membrane Cav2.2 after 1 hr by gamma counting method

Sequence of Voltage-dependent N-type calcium channel subunit alpha-1B (Homo sapiens, UniProt Q00975) (Q00975 whole entry): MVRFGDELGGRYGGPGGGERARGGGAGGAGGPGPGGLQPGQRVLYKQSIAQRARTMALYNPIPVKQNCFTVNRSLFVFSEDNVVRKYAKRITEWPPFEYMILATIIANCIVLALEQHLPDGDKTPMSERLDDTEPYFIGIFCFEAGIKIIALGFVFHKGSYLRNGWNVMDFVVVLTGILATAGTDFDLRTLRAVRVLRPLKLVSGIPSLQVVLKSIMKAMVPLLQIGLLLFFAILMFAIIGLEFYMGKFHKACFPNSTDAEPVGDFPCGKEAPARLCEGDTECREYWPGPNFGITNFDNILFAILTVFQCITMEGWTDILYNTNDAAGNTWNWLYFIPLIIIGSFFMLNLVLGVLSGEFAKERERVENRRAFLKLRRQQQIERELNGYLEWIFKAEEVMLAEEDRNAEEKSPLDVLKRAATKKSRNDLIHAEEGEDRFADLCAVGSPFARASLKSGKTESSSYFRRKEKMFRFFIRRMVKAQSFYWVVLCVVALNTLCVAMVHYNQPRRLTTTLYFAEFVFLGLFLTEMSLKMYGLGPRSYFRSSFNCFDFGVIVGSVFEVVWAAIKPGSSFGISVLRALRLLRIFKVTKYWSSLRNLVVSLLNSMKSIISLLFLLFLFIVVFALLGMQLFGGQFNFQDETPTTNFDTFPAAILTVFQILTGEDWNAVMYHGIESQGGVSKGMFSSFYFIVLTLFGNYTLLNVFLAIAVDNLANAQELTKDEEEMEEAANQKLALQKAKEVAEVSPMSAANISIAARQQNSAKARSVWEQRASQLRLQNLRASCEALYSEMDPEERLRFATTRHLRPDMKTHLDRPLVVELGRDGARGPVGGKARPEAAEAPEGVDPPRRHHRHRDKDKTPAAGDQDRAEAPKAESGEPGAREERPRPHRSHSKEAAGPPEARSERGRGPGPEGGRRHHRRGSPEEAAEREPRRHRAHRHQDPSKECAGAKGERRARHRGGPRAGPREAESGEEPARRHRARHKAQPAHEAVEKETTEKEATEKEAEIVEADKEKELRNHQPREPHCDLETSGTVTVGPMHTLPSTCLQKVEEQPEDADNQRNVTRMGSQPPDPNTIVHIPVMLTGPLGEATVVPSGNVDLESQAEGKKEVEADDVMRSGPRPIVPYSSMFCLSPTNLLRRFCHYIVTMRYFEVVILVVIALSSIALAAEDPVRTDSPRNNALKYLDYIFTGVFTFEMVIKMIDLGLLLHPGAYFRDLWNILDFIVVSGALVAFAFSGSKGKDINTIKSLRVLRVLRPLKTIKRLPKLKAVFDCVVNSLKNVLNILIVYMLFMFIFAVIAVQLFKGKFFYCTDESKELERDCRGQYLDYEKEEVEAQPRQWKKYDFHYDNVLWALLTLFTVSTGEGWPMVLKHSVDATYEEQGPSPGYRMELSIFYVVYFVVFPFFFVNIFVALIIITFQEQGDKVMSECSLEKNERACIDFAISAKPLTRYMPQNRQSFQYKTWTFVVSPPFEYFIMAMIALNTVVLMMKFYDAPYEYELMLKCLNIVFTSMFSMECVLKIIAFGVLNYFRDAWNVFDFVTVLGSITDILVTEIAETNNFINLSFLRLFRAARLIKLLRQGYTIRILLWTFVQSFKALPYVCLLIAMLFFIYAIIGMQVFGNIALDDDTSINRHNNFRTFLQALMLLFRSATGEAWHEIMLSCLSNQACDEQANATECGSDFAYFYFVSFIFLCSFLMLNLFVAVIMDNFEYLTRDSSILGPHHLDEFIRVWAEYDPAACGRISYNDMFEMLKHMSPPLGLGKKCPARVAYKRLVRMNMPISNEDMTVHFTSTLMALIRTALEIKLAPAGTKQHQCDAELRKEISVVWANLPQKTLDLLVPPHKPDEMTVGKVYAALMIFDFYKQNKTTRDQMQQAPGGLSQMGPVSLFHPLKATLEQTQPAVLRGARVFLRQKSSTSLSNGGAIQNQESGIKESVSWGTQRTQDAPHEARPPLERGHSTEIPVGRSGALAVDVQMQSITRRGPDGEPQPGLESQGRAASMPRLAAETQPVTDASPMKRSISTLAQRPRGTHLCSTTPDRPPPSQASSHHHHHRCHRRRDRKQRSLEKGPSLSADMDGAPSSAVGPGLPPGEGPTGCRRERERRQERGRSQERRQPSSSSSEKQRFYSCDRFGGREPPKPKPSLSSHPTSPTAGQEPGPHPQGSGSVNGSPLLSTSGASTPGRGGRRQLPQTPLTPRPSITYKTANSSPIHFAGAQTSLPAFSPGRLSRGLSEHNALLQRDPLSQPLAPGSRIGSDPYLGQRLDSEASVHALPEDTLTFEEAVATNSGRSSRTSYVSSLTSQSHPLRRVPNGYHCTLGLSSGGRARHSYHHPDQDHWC
Sequence of Voltage-dependent T-type calcium channel subunit alpha-1H (O95180 whole entry): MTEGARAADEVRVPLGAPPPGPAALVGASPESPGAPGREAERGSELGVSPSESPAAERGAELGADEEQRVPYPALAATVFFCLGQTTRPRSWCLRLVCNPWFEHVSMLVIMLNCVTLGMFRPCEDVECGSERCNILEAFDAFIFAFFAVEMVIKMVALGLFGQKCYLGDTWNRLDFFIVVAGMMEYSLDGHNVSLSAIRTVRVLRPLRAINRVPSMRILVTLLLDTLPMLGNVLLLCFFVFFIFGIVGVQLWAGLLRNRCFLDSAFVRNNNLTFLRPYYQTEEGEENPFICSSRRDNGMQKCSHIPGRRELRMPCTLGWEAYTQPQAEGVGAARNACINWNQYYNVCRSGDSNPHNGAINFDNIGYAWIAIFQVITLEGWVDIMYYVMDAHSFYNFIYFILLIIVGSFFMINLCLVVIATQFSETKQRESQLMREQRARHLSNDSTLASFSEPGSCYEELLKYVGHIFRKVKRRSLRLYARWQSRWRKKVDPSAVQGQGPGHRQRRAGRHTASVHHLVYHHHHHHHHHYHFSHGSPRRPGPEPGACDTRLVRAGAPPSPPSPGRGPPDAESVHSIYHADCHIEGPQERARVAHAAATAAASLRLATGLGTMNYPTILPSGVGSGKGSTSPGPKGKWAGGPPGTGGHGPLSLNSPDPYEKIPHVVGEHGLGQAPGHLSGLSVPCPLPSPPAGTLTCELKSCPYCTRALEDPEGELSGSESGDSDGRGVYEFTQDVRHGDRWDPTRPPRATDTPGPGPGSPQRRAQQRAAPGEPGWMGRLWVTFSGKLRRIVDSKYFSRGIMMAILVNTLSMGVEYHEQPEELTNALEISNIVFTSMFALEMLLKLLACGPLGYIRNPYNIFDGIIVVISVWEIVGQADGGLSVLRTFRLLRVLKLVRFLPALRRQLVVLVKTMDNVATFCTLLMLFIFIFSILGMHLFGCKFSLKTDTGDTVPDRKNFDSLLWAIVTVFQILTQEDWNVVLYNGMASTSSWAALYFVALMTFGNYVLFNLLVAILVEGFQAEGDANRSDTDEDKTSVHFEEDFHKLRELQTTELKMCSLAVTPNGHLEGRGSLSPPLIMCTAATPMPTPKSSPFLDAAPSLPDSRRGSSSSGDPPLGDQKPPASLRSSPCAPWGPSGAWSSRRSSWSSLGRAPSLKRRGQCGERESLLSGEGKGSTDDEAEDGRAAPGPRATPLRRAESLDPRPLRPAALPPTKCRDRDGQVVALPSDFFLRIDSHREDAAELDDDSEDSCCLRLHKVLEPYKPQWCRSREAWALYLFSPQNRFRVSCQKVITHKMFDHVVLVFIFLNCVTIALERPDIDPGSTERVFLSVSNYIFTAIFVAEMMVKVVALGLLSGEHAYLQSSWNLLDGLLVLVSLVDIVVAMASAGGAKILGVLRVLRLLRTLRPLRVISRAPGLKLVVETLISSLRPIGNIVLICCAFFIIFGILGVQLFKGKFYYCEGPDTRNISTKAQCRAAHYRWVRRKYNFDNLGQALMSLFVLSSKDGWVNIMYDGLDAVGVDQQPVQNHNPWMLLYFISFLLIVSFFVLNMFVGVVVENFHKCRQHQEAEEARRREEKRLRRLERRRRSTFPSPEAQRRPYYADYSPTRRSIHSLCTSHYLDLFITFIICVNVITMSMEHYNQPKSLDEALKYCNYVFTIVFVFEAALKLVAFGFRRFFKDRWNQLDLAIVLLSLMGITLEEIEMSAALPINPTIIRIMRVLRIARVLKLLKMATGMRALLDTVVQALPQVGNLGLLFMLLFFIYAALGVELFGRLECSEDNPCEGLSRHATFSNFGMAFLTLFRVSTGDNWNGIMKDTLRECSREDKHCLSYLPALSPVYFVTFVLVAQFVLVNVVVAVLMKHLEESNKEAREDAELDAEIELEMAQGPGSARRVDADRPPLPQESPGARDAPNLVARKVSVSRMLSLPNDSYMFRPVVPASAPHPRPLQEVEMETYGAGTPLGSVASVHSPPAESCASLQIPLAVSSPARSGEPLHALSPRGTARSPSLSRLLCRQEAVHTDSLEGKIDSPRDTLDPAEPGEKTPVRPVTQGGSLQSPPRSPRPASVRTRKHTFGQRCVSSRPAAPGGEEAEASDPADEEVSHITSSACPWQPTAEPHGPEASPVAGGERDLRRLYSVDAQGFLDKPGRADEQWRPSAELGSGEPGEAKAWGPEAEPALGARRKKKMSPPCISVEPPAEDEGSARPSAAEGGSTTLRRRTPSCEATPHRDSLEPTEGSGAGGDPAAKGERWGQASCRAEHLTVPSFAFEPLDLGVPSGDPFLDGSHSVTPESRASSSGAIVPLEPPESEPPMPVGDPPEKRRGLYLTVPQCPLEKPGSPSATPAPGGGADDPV

**Q.** For NCCCOc1ccc(CNc2nc3ccc(Oc4cccc(C(F)(F)F)c4)cc3s2)cc1, which IC50 [1] is on record?
**A.** The IC50 was 144 µM.

**Q.** And the IC50 [2]?
**A.** Its IC50 is 171 µM.

**Q.** Which results are given for CN(Cc1ccc(OCCCN)cc1)c1nc2ccc(Oc3ccc(O)cc3)cc2s1?
**A.** IC50 [1]: 117 µM; IC50 [2]: 165 µM

**Q.** For NCCCOc1ccc(CNc2nc3ccc(Oc4ccc(O)cc4)cc3s2)cc1, which IC50 [1] is on record?
**A.** The IC50 was 205 µM.

**Q.** And the IC50 [2]?
**A.** The IC50 was 300 µM.

**Q.** What does the source list for CN(Cc1ccc(OCCCNC(=N)N)cc1)c1nc2ccc(Oc3cccc(C(F)(F)F)c3)cc2s1.O=C(O)C(F)(F)F?
**A.** IC50 [1]: 202 µM; half-life [3]: > 24 h; remaining at 24 h, 120 µM [4]: 95%; IC50 [2]: 771 µM

**Q.** For N=C(N)NCCCOc1ccc(CNc2nc3ccc(Oc4ccc(O)cc4)cc3s2)cc1, which IC50 [1] is on record?
**A.** Its IC50 is 253 µM.

**Q.** And the IC50 [2]?
**A.** The IC50 was 319 µM.

**Q.** What does the source list for CN(Cc1ccc(OCCCNC(=N)N)cc1)c1nc2ccc(Oc3ccc(F)cc3)cc2s1?
**A.** IC50 [1]: 100 µM; IC50 [2]: 521 µM

**Q.** Which results are given for N=C(N)NCCCOc1ccc(CNc2nc3ccc(Oc4ccc(C(F)(F)F)cc4)cc3s2)cc1.O=C(O)C(F)(F)F?
**A.** IC50 [1]: 167 µM; half-life [3]: > 24 h; remaining at 24 h, 120 µM [4]: 91%; IC50 [2]: 195 µM

**Q.** What does the source list for N=C(N)NCCCOc1ccc(CNc2nc3ccc(Oc4cccc(C(F)(F)F)c4)cc3s2)cc1?
**A.** IC50 [1]: 130 µM; IC50 [2]: 270 µM

**Q.** With CN(Cc1ccc(OCCCNC(=N)N)cc1)c1nc2ccc(Oc3ccccc3)cc2s1 as the molecule, how does the IC50 [1] read?
**A.** Its IC50 is 113 µM.

**Q.** What about the IC50 [2] of the same molecule?
**A.** Its IC50 is 498 µM.

**Q.** What does the source list for CN(Cc1ccc(OCCCN)cc1)c1nc2ccc(Oc3ccccc3)cc2s1?
**A.** IC50 [1]: 49 µM; IC50 [2]: 95 µM

**Q.** With CN(Cc1ccc(OCCCN)cc1)c1nc2ccc(Oc3cccc(C(F)(F)F)c3)cc2s1.O=C(O)C(F)(F)F as the molecule, how does the IC50 [1] read?
**A.** Its IC50 is 77 µM.

**Q.** And the half-life [3]?
**A.** Its half-life is greater than 24 h.

**Q.** And the remaining at 24 h, 120 µM [4]?
**A.** The remaining at 24 h, 120 µM was 100%.

**Q.** What about the IC50 [2] of the same molecule?
**A.** Its IC50 is 239 µM.

**Q.** Which IC50 [1] does the source give for NC(N)=NCCCOc1ccc(CNc2nc3ccc(Oc4ccccc4)cc3s2)cc1 here?
**A.** The IC50 was 103 µM.

**Q.** What about the IC50 [2] of the same molecule?
**A.** Its IC50 is 166 µM.

**Q.** Which IC50 [1] does the source give for CN(Cc1ccc(OCCCNC(=N)N)cc1)c1nc2ccc(Oc3ccc(C#N)cc3)cc2s1 here?
**A.** Its IC50 is 143 µM.

**Q.** And the IC50 [2]?
**A.** Its IC50 is 153 µM.

**Q.** What does the source list for CN(Cc1ccc(OCCCN)cc1)c1nc2ccc(Oc3ccc(C(F)(F)F)cc3)cc2s1?
**A.** IC50 [1]: 283 µM; IC50 [2]: 248 µM

**Q.** What does the source list for CN(Cc1ccc(OCCCNC(=N)N)cc1)c1nc2ccc(Oc3ccc(C(F)(F)F)cc3)cc2s1?
**A.** IC50 [1]: 185 µM; IC50 [2]: 212 µM

**Q.** Which IC50 [1] does the source give for N=C(N)NCCCOc1ccc(CNc2nc3ccc(Oc4ccc(F)cc4)cc3s2)cc1 here?
**A.** Its IC50 is 244 µM.

**Q.** What about the IC50 [2] of the same molecule?
**A.** Its IC50 is 288 µM.

**Q.** Which IC50 [1] does the source give for CN(Cc1ccc(OCCCNC(=N)N)cc1)c1nc2ccc(Oc3ccc(O)cc3)cc2s1 here?
**A.** The IC50 was 432 µM.

**Q.** And the IC50 [2]?
**A.** The IC50 was 332 µM.

**Q.** For CN(Cc1ccc(OCCCN)cc1)c1nc2ccc(Oc3ccc(C#N)cc3)cc2s1, which IC50 [1] is on record?
**A.** The IC50 was 65 µM.

**Q.** And the IC50 [2]?
**A.** Its IC50 is 328 µM.

**Q.** For CN(C)CCCOc1ccc(CN(C)c2nc3ccc(Oc4ccc(C(F)(F)F)cc4)cc3s2)cc1, which IC50 [1] is on record?
**A.** Its IC50 is 46 µM.

**Q.** What about the IC50 [2] of the same molecule?
**A.** The IC50 was 54 µM.

**Q.** Which results are given for CN(C)CCCOc1ccc(CNc2nc3ccc(Oc4ccc(F)cc4)cc3s2)cc1?
**A.** IC50 [1]: 40 µM; IC50 [2]: > 1000 µM

**Q.** Which IC50 [1] does the source give for CN(C)CCCOc1ccc(CNc2nc3ccc(Oc4ccc(C#N)cc4)cc3s2)cc1 here?
**A.** Its IC50 is 105 µM.

**Q.** And the IC50 [2]?
**A.** The IC50 was 41 µM.

**Q.** Which IC50 [1] does the source give for CN(Cc1ccc(OCCCN)cc1)c1nc2ccc(Oc3ccc(F)cc3)cc2s1 here?
**A.** Its IC50 is 98 µM.

**Q.** And the IC50 [2]?
**A.** Its IC50 is 492 µM.

**Q.** What does the source list for CN(C)CCCOc1ccc(CN(C)c2nc3ccc(Oc4ccc(C#N)cc4)cc3s2)cc1?
**A.** IC50 [1]: 69 µM; IC50 [2]: 64 µM

**Q.** Which IC50 [1] does the source give for CC(C)[C@H]1c2ccc(F)cc2CC[C@@]1(CCN(C)CCCc1nc2ccccc2[nH]1)OC(=O)C1CC1 here?
**A.** Its IC50 is 7 µM.

**Q.** Which IC50 [1] does the source give for CN(C)CCCOc1ccc(CNc2nc3ccc(Oc4cccc(C(F)(F)F)c4)cc3s2)cc1 here?
**A.** Its IC50 is 51 µM.

**Q.** And the IC50 [2]?
**A.** Its IC50 is 110 µM.

**Q.** For NCCCOc1ccc(CNc2nc3ccc(Oc4ccc(C(F)(F)F)cc4)cc3s2)cc1, which IC50 [1] is on record?
**A.** Its IC50 is 59 µM.

**Q.** What about the IC50 [2] of the same molecule?
**A.** The IC50 was 112 µM.

**Q.** With NCCCOc1ccc(CNc2nc3ccc(Oc4ccc(F)cc4)cc3s2)cc1.O=C(O)C(F)(F)F as the molecule, how does the IC50 [1] read?
**A.** The IC50 was 106 µM.

**Q.** What about the half-life [3] of the same molecule?
**A.** The half-life was greater than 24 h.

**Q.** What about the remaining at 24 h, 120 µM [4] of the same molecule?
**A.** The remaining at 24 h, 120 µM was 75%.

**Q.** And the IC50 [2]?
**A.** Its IC50 is 688 µM.

**Q.** With NCCCOc1ccc(CNc2nc3ccc(Oc4ccccc4)cc3s2)cc1 as the molecule, how does the IC50 [1] read?
**A.** Its IC50 is 218 µM.

**Q.** What about the IC50 [2] of the same molecule?
**A.** The IC50 was greater than 1000 µM.

**Q.** Which results are given for N#Cc1ccc(Oc2ccc3nc(NCc4ccc(OCCCNC(=N)N)cc4)sc3c2)cc1?
**A.** IC50 [1]: 368 µM; IC50 [2]: 326 µM

**Q.** Which IC50 [1] does the source give for N#Cc1ccc(Oc2ccc3nc(NCc4ccc(OCCCN)cc4)sc3c2)cc1 here?
**A.** Its IC50 is 41 µM.

**Q.** And the IC50 [2]?
**A.** The IC50 was 109 µM.

**Q.** Which EC50 [5] does the source give for NCCCOc1ccccc1C(=O)N(Cc1ccc(OCCCN=C(N)N)cc1)c1nc2ccc(Oc3ccc(O)cc3)cc2s1 here?
**A.** Its EC50 is 5.7 µM.

**Q.** Which EC50 [5] does the source give for NCCCOc1ccc(CN(C(=O)c2ccccc2OCCCN)c2nc3ccc(Oc4ccc(O)cc4)cc3s2)cc1 here?
**A.** The EC50 was 5.4 µM.

**Q.** Which results are given for O=C(CC(c1ccccc1)c1ccccc1)N1CCN(C(c2ccccc2)c2ccccc2)CC1 [Z160]?
**A.** IC50 [1]: 39 µM; IC50 [2]: 45 µM
